Results on three compounds are retold here after patent US10434186B2, “Functionalized linear ligands and complexes thereof” (LUMIPHORE, INC., priority 2014, dated 2019).

Where a name gives a salt, the structure may show the parent alone.

The conditions of data set [1]: Eu(III) complex of the ligand; cited from earlier work.
Data set [2] is described as follows: Molar extinction coefficient from absorption spectrum in 0.1 M TRIS buffer. Format: physicochemical. As to the method: This corresponds to 1.218×10^−6 moles of ligand in 50 mL and c=2.436×10^−5 M. A=ϵcl, at λmax, A=0.42853 at 327 nm. […] This corresponds to 2.472×10^−6 moles of ligand in 50 mL and c=4.945×10^−5 M. A=ϵcl; at λmax, A=0.96915 at 315 nm.
For data set [3] the following is noted: in 0.5 M H2SO4; cited from earlier work.

Turning to `O=C(NCCCN(CCCCN(CCCNC(=O)c1cccc(=O)n1O)C(=O)c1cccc(=O)n1O)C(=O)c1cccc(=O)n1O)c1cccc(=O)n1O` [3,4,3-LI(1,2-HOPO)], the “quantum yield of Eu(III) complex” value in data set [1] is given as approximately 20%.
In the case of `Cl.NCCOCCNC(=O)C(CCCN(CCCNC(=O)c1cccc(=O)n1O)C(=O)c1cccc(=O)n1O)N(CCCNC(=O)c1cccc(=O)n1O)C(=O)c1cccc(=O)n1O` (centres unmarked) [Compound 2-8], the “ϵ280/ϵ327 ratio for protein labelling” value in data set [2] (0.1 M TRIS buffer pH 7.4) is reported as 3.11. The “extinction coefficient ϵ at 327 nm (λmax)” value in data set [2] (0.1 M TRIS buffer pH 7.4, 1 cm cuvette, based on CHN) is given as ~17,595 M^−1 cm^−1. For the same compound, the “extinction coefficient at 280 nm” value in data set [2] (0.1 M TRIS buffer pH 7.4, 280 nm) was approximately 5655 M⁻¹ cm⁻¹.
`C=C[C@H]1C[N@@]2CC[C@H]1C[C@H]2[C@H](O)c1ccnc2ccc(OC)cc12` [Quinine Sulfate]: in data set [3], the “reference quantum yield Φref” value is given as 0.546.
